Data reported in patent publication US20240043404A1 (AbbVie Inc., priority 2009, published 2024).
Read-outs that look alike come from different tables or passages of the source.

Tested on: RS4;11 cells
Assay: RS4;11 cell viability assay (CellTiter Glo);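 note: acute lymphoblastic leukemia line RS4,11, EC50 derived from percentage of viable cells after treatment relative to untreated controls, cell killing taken as a measure of Bcl-2 inhibition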
Format: cell-based, human
Conditions: read-out: RS4
[1] = Homo sapiens, RS4-11, 48 h, 50,000 cells per well, 10% human serum, 48 hours, 11 EC50 Values

Description: The acute lymphoblastic leukemia (ALL) cell line RS4;11 was used as the primary human cell line to assess the cellular activity of Bcl-2 selective agents in vitro and their efficacy in vivo.
Cell cytotoxicity EC50 values were assessed using CellTiter Glo (Promega) according to the manufacturer's recommendations. The EC50 values were determined as a percentage of viable cells following treatment compared to the untreated control cells.

| Compound | EC50 [1] [nM] | EC50 (Table 5, direct comparison Z=N with corresponding analogs Z=C, 11 EC50) [nM] |
| --- | --- | --- |
| CC1(C)CCC(CN2CCN(c3ccc(C(=O)NS(=O)(=O)c4ccc(N[C@H]5CCCNC5=O)c([N+](=O)[O-])c4)c(Oc4cnc5[nH]ccc5c4)c3)CC2)=C(c2ccc(Cl)cc2)C1 [Example 160, 4-(4-{[2-(4-chlorophenyl)-4,4-dimethylcyclohex-1-en-1-yl]methyl}piperazin-1-yl)-N-[(3-nitro-4-{[(3S)-2-oxopiperidin-3-yl]amino}phenyl)sulfonyl]-2-(1H-pyrrolo[2,3-b]pyridin-5-yloxy)benzamide] | 83.6 |  |
| COC1(COc2ccc(S(=O)(=O)NC(=O)c3ccc(N4CCN(CC5=C(c6ccc(Cl)cc6)CC(C)(C)CC5)CC4)cc3Oc3cnc4[nH]ccc4c3)cc2[N+](=O)[O-])CCOCC1 [Example 234, 4-(4-{[2-(4-chlorophenyl)-4,4-dimethylcyclohex-1-en-1-yl]methyl}piperazin-1-yl)-N-({4-[(4-methoxytetrahydro-2H-pyran-4-yl)methoxy]-3-nitrophenyl}sulfonyl)-2-(1H-pyrrolo[2,3-b]pyridin-5-yloxy)benzamide] | 135 |  |
| CC1(C)CCC(CN2CCN(c3ccc(C(=O)NS(=O)(=O)c4ccc(N[C@H]5CC[C@H](NS(C)(=O)=O)CC5)c([N+](=O)[O-])c4)c(Oc4cnc5[nH]ccc5c4)c3)CC2)=C(c2ccc(Cl)cc2)C1 [Example 189, Trans-4-(4-{[2-(4-chlorophenyl)-4,4-dimethylcyclohex-1-en-1-yl]methyl}piperazin-1-yl)-N-{[4-({4-[(methylsulfonyl)amino]cyclohexyl}amino)-3-nitrophenyl]sulfonyl}-2-(1H-pyrrolo[2,3-b]pyridin-5-yloxy)benzamide] | 144 |  |
| CC1(C)CCC(CN2CCN(c3ccc(C(=O)NS(=O)(=O)c4ccc(OCC5(F)CCOCC5)c(C#N)c4)c(Oc4cnc5[nH]ccc5c4)c3)CC2)=C(c2ccc(Cl)cc2)C1 [Example 299, 4-(4-{[2-(4-chlorophenyl)-4,4-dimethylcyclohex-1-en-1-yl]methyl}piperazin-1-yl)-N-({3-cyano-4-[(4-fluorotetrahydro-2H-pyran-4-yl)methoxy]phenyl}sulfonyl)-2-(1H-pyrrolo[2,3-b]pyridin-5-yloxy)benzamide] | 68 |  |
| CC1(C)CCC(CN2CCN(c3ccc(C(=O)NS(=O)(=O)c4cnc(OCCC5CCCO5)c(Cl)c4)c(Oc4cnc5[nH]ccc5c4)c3)CC2)=C(c2ccc(Cl)cc2)C1 (stereo not shown) [Example 289, 4-(4-{[2-(4-chlorophenyl)-4,4-dimethylcyclohex-1-en-1-yl]methyl}piperazin-1-yl)-N-({5-chloro-6-[2-(tetrahydrofuran-2-yl)ethoxy]pyridin-3-yl}sulfonyl)-2-(1H-pyrrolo[2,3-b]pyridin-5-yloxy)benzamide] | 669 |  |
| CC1(C)CCC(CN2CCN(c3ccc(C(=O)NS(=O)(=O)c4ccc(NCCCN(CC(F)(F)F)C5CC5)c([N+](=O)[O-])c4)c(Oc4cnc5[nH]ccc5c4)c3)CC2)=C(c2ccc(Cl)cc2)C1 [Example 308, 4-(4-{[2-(4-chlorophenyl)-4,4-dimethylcyclohex-1-en-1-yl]methyl}piperazin-1-yl)-N-{[4-({3-[cyclopropyl(2,2,2-trifluoroethyl)amino]propyl}amino)-3-nitrophenyl]sulfonyl}-2-(1H-pyrrolo[2,3-b]pyridin-5-yloxy)benzamide] | 257 |  |
| CC1(C)CCC(CN2CCN(c3ccc(C(=O)NS(=O)(=O)c4cnc(OC[C@@H]5CN(CC#N)CCO5)c(Cl)c4)c(Oc4cnc5[nH]ccc5c4)c3)CC2)=C(c2ccc(Cl)cc2)C1 [Example 244, N-[(5-chloro-6-{[(2S)-4-(cyanomethyl)morpholin-2-yl]methoxy}pyridin-3-yl)sulfonyl]-4-(4-{[2-(4-chlorophenyl)-4,4-dimethylcyclohex-1-en-1-yl]methyl}piperazin-1-yl)-2-(1H-pyrrolo[2,3-b]pyridin-5-yloxy)benzamide] | 794 |  |
| 4-{4-[(4′-chloro-1,1′-biphenyl-2-yl)methyl]piperazin-1-yl}-2-(1H-indol-5-yloxy)-N-({3-nitro-4-[(tetrahydro-2H-pyran-4-ylmethyl)amino]phenyl}sulfonyl) benzamide [Example 87] |  | 1180 |

Further compounds by falling EC50 [1], results first:

| EC50 [1] [nM] | Compound | EC50 (Table 5, direct comparison Z=N with corresponding analogs Z=C, 11 EC50) [nM] |
| --- | --- | --- |
| 64.4 | CC1(C)CCC(CN2CCN(c3ccc(C(=O)NS(=O)(=O)c4ccc(NCc5cccc(O)c5)c([N+](=O)[O-])c4)c(Oc4cnc5[nH]ccc5c4)c3)CC2)=C(c2ccc(Cl)cc2)C1 [Example 186, 4-(4-{[2-(4-chlorophenyl)-4,4-dimethylcyclohex-1-en-1-yl]methyl}piperazin-1-yl)-N-({4-[(3-hydroxybenzyl)amino]-3-nitrophenyl}sulfonyl)-2-(1H-pyrrolo[2,3-b]pyridin-5-yloxy)benzamide] |  |
| 52.4 | CC1(C)CCC(CN2CCN(c3ccc(C(=O)NS(=O)(=O)c4ccc(OCC5CCN(C6COC6)CC5)c(Cl)c4)c(Oc4cnc5[nH]ccc5c4)c3)CC2)=C(c2ccc(Cl)cc2)C1 [Example 309, N-[(3-chloro-4-{[1-(oxetan-3-yl)piperidin-4-yl]methoxy}phenyl)sulfonyl]-4-(4-{[2-(4-chlorophenyl)-4,4-dimethylcyclohex-1-en-1-yl]methyl}piperazin-1-yl)-2-(1H-pyrrolo[2,3-b]pyridin-5-yloxy)benzamide] |  |
| 26 | CC1(C)CCC(CN2CCN(c3ccc(C(=O)NS(=O)(=O)c4cnc(OCC5(F)CCN(CC#N)CC5)c(Cl)c4)c(Oc4cnc5[nH]ccc5c4)c3)CC2)=C(c2ccc(Cl)cc2)C1 [Example 257, N-[(5-chloro-6-{[1-(cyanomethyl)-4-fluoropiperidin-4-yl]methoxy}pyridin-3-yl)sulfonyl]-4-(4-{[2-(4-chlorophenyl)-4,4-dimethylcyclohex-1-en-1-yl]methyl}piperazin-1-yl)-2-(1H-pyrrolo[2,3-b]pyridin-5-yloxy)benzamide] |  |
| 20.5 | CO[C@H]1CC[C@@H](CNc2ccc(S(=O)(=O)NC(=O)c3ccc(N4CCN(CC5=C(c6ccc(Cl)cc6)CC(C)(C)CC5)CC4)cc3Oc3cnc4[nH]ccc4c3)cc2[N+](=O)[O-])CC1 [Example 29, Cis-4-(4-{[2-(4-chlorophenyl)-4,4-dimethylcyclohex-1-en-1-yl]methyl}piperazin-1-yl)-N-[(4-{[(4-methoxycyclohexyl)methyl]amino}-3-nitrophenyl)sulfonyl]-2-(1H-pyrrolo[2,3-b]pyridin-5-yloxy)benzamide] |  |
| 14.8 | CN(C)CC(=O)N1CCC(COc2ccc(S(=O)(=O)NC(=O)c3ccc(N4CCN(CC5=C(c6ccc(Cl)cc6)CC(C)(C)CC5)CC4)cc3Oc3cnc4[nH]ccc4c3)cc2Cl)CC1 [Example 295, N-[(3-chloro-4-{[1-(N,N-dimethylglycyl)piperidin-4-yl]methoxy}phenyl)sulfonyl]-4-(4-{[2-(4-chlorophenyl)-4,4-dimethylcyclohex-1-en-1-yl]methyl}piperazin-1-yl)-2-(1H-pyrrolo[2,3-b]pyridin-5-yloxy)benzamide] |  |
| 5.43 | CN(C)CC(=O)N1CCC(COc2ncc(S(=O)(=O)NC(=O)c3ccc(N4CCN(CC5=C(c6ccc(Cl)cc6)CC(C)(C)CC5)CC4)cc3Oc3cnc4[nH]ccc4c3)cc2Cl)CC1 [Example 260, N-[(5-chloro-6-{[1-(N,N-dimethylglycyl)piperidin-4-yl]methoxy}pyridin-3-yl)sulfonyl]-4-(4-{[2-(4-chlorophenyl)-4,4-dimethylcyclohex-1-en-1-yl]methyl}piperazin-1-yl)-2-(1H-pyrrolo[2,3-b]pyridin-5-yloxy)benzamide] |  |
| 4.53 | O=C(NS(=O)(=O)c1ccc(NC[C@H]2CC[C@H](O)CC2)c([N+](=O)[O-])c1)c1ccc(N2CCN(CC3=C(c4ccc(Cl)cc4)CCC(F)(F)C3)CC2)cc1Oc1cnc2[nH]ccc2c1 [Example 324, 4-(4-{[2-(4-chlorophenyl)-5,5-difluorocyclohex-1-en-1-yl]methyl}piperazin-1-yl)-N-[(4-{[(trans-4-hydroxycyclohexyl)methyl]amino}-3-nitrophenyl)sulfonyl]-2-(1H-pyrrolo[2,3-b]pyridin-5-yloxy)benzamide] |  |
| 4 | CC1(C)CCC(CN2CCN(c3ccc(C(=O)NS(=O)(=O)c4ccc(NC[C@@H]5CCN(C6CCOCC6)C5)c([N+](=O)[O-])c4)c(Oc4cnc5[nH]ccc5c4)c3)CC2)=C(c2ccc(Cl)cc2)C1 [Example 145, 4-(4-{[2-(4-chlorophenyl)-4,4-dimethylcyclohex-1-en-1-yl]methyl}piperazin-1-yl)-N-{[3-nitro-4-({[(3S)-1-tetrahydro-2H-pyran-4-ylpyrrolidin-3-yl]methyl}amino)phenyl]sulfonyl}-2-(1H-pyrrolo[2,3-b]pyridin-5-yloxy)benzamide] |  |
| 3.33 | CN1CCC(COc2ccc(S(=O)(=O)NC(=O)c3ccc(N4CCN(CC5=C(c6ccc(Cl)cc6)CC(C)(C)CC5)CC4)cc3Oc3cnc4[nH]ccc4c3)cc2[N+](=O)[O-])CC1 [Example 48, 4-(4-{[2-(4-chlorophenyl)-4,4-dimethylcyclohex-1-en-1-yl]methyl}piperazin-1-yl)-N-({4-[(1-methylpiperidin-4-yl)methoxy]-3-nitrophenyl}sulfonyl)-2-(1H-pyrrolo[2,3-b]pyridin-5-yloxy)benzamide] |  |
| 2.06 | CC1(C)CCC(CN2CCN(c3ccc(C(=O)NS(=O)(=O)c4ccc(OCC5CCC6(CC5)COC6)c([N+](=O)[O-])c4)c(Oc4cnc5[nH]ccc5c4)c3)CC2)=C(c2ccc(Cl)cc2)C1 [Example 351, 4-(4-{[2-(4-chlorophenyl)-4,4-dimethylcyclohex-1-en-1-yl]methyl}piperazin-1-yl)-N-{[3-nitro-4-(2-oxaspiro[3.5]non-7-ylmethoxy)phenyl]sulfonyl}-2-(1H-pyrrolo[2,3-b]pyridin-5-yloxy)benzamide] |  |
| 1.18 | CC1(C)CCC(CN2CCN(c3ccc(C(=O)NS(=O)(=O)c4ccc(OCC5(F)CCOCC5)c([N+](=O)[O-])c4)c(Oc4cnc5[nH]ccc5c4)c3)CC2)=C(c2ccc(Cl)cc2)C1 [Example 37, 4-(4-{[2-(4-chlorophenyl)-4,4-dimethylcyclohex-1-en-1-yl]methyl}piperazin-1-yl)-N-({4-[(4-fluorotetrahydro-2H-pyran-4-yl)methoxy]-3-nitrophenyl}sulfonyl)-2-(1H-pyrrolo[2,3-b]pyridin-5-yloxy)benzamide] |  |
